Measurements as given in patent US20230053437A1, “LIPID COMPOUNDS AND LIPID NANOPARTICLE COMPOSITIONS” (Suzhou Abogen Biosciences Co., Ltd., priority 2020, published 2023).

What was measured:
Assay type in all cases: physicochemical
[1] = Encapsulation efficiency of lipid nanoparticles, Quant-it Ribogreen RNA quantification assay; conditions: LNP with hEPO mRNA
Experimental: (§1) Briefly, a cationic lipid provided herein, DSPC, cholesterol, and PEG-lipid were solubilized in ethanol at a molar ratio of 50:10:38.5:1.5, and mRNA were diluted in 10 to 50 mM citrate buffer, pH=4. The LNPs were prepared at a total lipid to mRNA weight ratio of approximately 10:1 to 30:1 by mixing the ethanolic lipid solution with the aqueous mRNA solution at a volume ratio of 1:3 using a microfluidic apparatus, total flow rate ranging from 9-30 mL/min. Ethanol were thereby removed and replaced by DPBS using dialysis. Finally, the lipid nanoparticles were filtered through a […] sterile filter.
(§2) Lipid nanoparticle size were determined by dynamic light scattering using a Malvern Zetasizer Nano ZS (Malvern UK) using a 173° backscatter detection mode. The encapsulation efficiency of lipid nanoparticles were determined using a Quant-it Ribogreen RNA quantification assay kit (Thermo Fisher Scientific, UK) according to the manufacturer's instructions.

[2] = Lipid nanoparticle size by dynamic light scattering (Malvern Zetasizer Nano ZS); conditions: LNP: cationic lipid/DSPC/cholesterol/PEG-lipid 50:10:38.5:1.5 with hEPO mRNA
Experimental: as §1, §2

[3] = Apparent pKa of LNP formulations, TNS fluorescence assay; conditions: LNP cationic lipid/DSPC/cholesterol/DMG-PEG 50/10/38.5/1.5 mol %, pH 3 to 9
Experimental: As reported in literature, the apparent pKa of LNP formulations correlates with the delivery efficiency of LNPs for nucleic acids in vivo. The apparent pKa of each formulation was determined using an assay based on fluorescence of 2-(p-toluidino)-6-napthalene sulfonic acid (TNS). LNP formulations comprising of cationic lipid/DSPC/cholesterol/DMG-PEG (50/10/38.5/1.5 mol %) in PBS were prepared as described above. TNS was prepared as a 300 uM stock solution in distilled water. LNP formulations were diluted to 0.1 mg/ml total lipid in 3 mL of buffered solutions containing 50 mM sodium citrate, 50 mM sodium phosphate, 50 mM sodium borate, and 30 mM sodium chloride where the pH ranged from 3 to 9. An aliquot of the TNS solution was added to give a final concentration of 0.1 mg/ml and following vortex mixing fluorescence intensity was measured at room temperature in a Molecular Devices Spectramax iD3 spectrometer using excitation and mission wavelengths of 325 nm and 435 nm. A sigmoidal best fit analysis was applied to the fluorescence data and the pKa value was measured as the pH giving rise to half-maximal fluorescent intensity.

Row | SMILES | Encapsulation Efficiency [1] | polydispersity [2] | size (nm) [2] | Apparant Pka [3]
1 | CCCCCCCCCCCC(=O)OCC1(COC(=O)CCCCCCCCCCC)CCN(CCCCCCO)CC1 [Compound 21] | 73.2% | 0.198 | 127.8 nm | 6.71
2 | CCCCCCCCCCCC(=O)OCC1(COC(=O)CCCCCCCCCCC)CCN(C(=O)CCN(CCC)CCO)CC1 [Compound 22] | 93.9% | 0.252 | 56.79 nm | 7.76
3 | CCCCCCCCCCCC(=O)OCC1(COC(=O)CCCCCCCCCCC)CCN(C(=O)CCN(CCCC)CCCC)CC1 [Compound 30] | 80.1% | 0.056 | 92.03 nm | 6.77
4 | CCCCCCCCCCCC(=O)OCC1(COC(=O)CCCCCCCCCCC)CCN(C(=O)CCN2CCOCC2)CC1 [Compound 10] | 82.5% | 0.135 | 67.82 nm | 6.81
5 | CCCCCCCCCCCCCCCC(=O)OCC1(COC(=O)CCCCCCCCCCCCCCC)CCN(C(=O)CCN(CCCCCC)CCCCCC)CC1 [Compound 34] | 74.0% | 0.127 | 110.4 nm | 5.90
6 | CCCCCCCCCC(=O)OCC1(COC(=O)CCCCCCCCC)CCN(C(=O)CCN(CCCCCC)CCCCCC)CC1 [Compound 32] | 88.2% | 0.13 | 93.36 nm | 6.34
7 | CCCCCCCCCCCC(=O)OCC1(COC(=O)CCCCCCCCCCC)CCN(C(=O)CCN2CCCCCC2)CC1 [Compound 7] | 98.2% | 0.101 | 68 nm | 9.02
8 | CCCCCCCCCCCC(=O)OCC1(COC(=O)CCCCCCCCCCC)CCN(C(C)CO)CC1 (stereo not shown) [Compound 17] | 96.6% | 0.159 | 54.04 nm | 7.68
9 | CCCCCCCCCCCC(=O)OCC1(COC(=O)CCCCCCCCCCC)CCN(C(=O)CCN(C)C)CC1 [Compound 9] | 95.5% | 0.08 | 70.22 nm | 
10 | CCCCCCCCCCCC(=O)OCC1(COC(=O)CCCCCCCCCCC)CCN(CCCCCO)CC1 [Compound 20] | 92.6% | 0.161 | 81.62 nm | 8.23
11 | CCCCCCCCCCCC(=O)OCC1(COC(=O)CCCCCCCCCCC)CCN(C(=O)CCCN(CC)CCO)CC1 [Compound 35] | 96.0% | 0.261 | 89.42 nm | 8.02
12 | CCCCCCCCCCCC(=O)OCC1(COC(=O)CCCCCCCCCCC)CCN(C(=O)CCN(C)CCCn2cnc3c(N)ncnc32)CC1 [Compound 15] | 94.2% | 0.153 | 63.65 nm | 6.65
13 | CCCCCCCCCCCC(=O)OCC1(COC(=O)CCCCCCCCCCC)CCN(C(=O)CCN(C)CCCn2ccc(N)nc2=O)CC1 [Compound 14] | 92.5% | 0.092 | 67.29 nm | 8.22
14 | CCCCCCCCCCCC(=O)OCC1(COC(=O)CCCCCCCCCCC)CCN(C(=O)CCN2CCCC2)CC1 [Compound 5] | 95.4% | 0.112 | 69.83 nm | 7.67
15 | CCCCCCCCCCCC(=O)OCC1(COC(=O)CCCCCCCCCCC)CCN(C(=O)CCN(CC)CCO)CC1 [Compound 3] | 96.4% | 0.165 | 64.67 nm | 7.58
16 | CCCCCCCCCCCC(=O)OCC1(COC(=O)CCCCCCCCCCC)CCN(CCCO)CC1 [Compound 18] | 94.0% | 0.212 | 105.9 nm | 7.17
17 | CCCCCCCCCCCC(=O)OCC1(COC(=O)CCCCCCCCCCC)CCN(CCO)CC1 [Compound 1] | 98.8% | 0.096 | 58.53 nm | 7.30
18 | CCCCCCCCCCCC(=O)OCC1(COC(=O)CCCCCCCCCCC)CCN(C(=O)CCN(CC)CC)CC1 [Compound 27] | 93.6% | 0.11 | 71.72 nm | 8.27
19 | CCCCCCCCCCCC(=O)OCC1(COC(=O)CCCCCCCCCCC)CCN(C(=O)CCN(CCC)CCC)CC1 [Compound 28] | 79.2% | 0.142 | 116.2 nm | 

Further lines, results first:

Row | Encapsulation Efficiency [1] | polydispersity [2] | size (nm) [2] | Apparant Pka [3] | SMILES
20 | 92.4% | 0.066 | 84.7 nm | 9.27 | CCCCCCCCCCCC(=O)OCC1(COC(=O)CCCCCCCCCCC)CCN(C(=O)CCCN2CCCCC2)CC1 [Compound 40]
21 | 69.9% | 0.214 | 89.71 nm | 6.83 | CCCCCCCCCCCC(=O)OCC1(COC(=O)CCCCCCCCCCC)CCN(C(=O)CCCN2CCOCC2)CC1 [Compound 43]
22 | 93.2% | 0.095 | 67.83 nm | 7.84 | CCCCCCCCCCCC(=O)OCC1(COC(=O)CCCCCCCCCCC)CCN(C(=O)CCCN(CCC)CCO)CC1 [Compound 36]
23 | 97.0% | 0.42 | 89.41 nm | 13.20 | CCCCCCCCCCCC(=O)OCC1(COC(=O)CCCCCCCCCCC)CCN(C(=O)CCCN2CCCC2)CC1 [Compound 39]
24 | 100.4% | 0.47 | 107.3 nm | 6.20 | CCCCCCCCC(CCCCCC)COC(=O)CCCCCC(=O)OCC1(COC(=O)CCCCCC(=O)OCC(CCCCCC)CCCCCCCC)CCN(C(=O)CCCN(C)C)CC1 (stereo not shown) [Compound 52]
25 | 96.1% | 0.298 | 78.03 nm | 7.45 | CCCCCCCCCCCC(=O)OCC1(COC(=O)CCCCCCCCCCC)CCN(C(=O)CCCN2CCCCCCC2)CC1 [Compound 42]
26 | 91.7% | 0.048 | 90.17 nm | 7.44 | CCCCCCCCC(CCCCCC)COC(=O)CCCCCC(=O)OCC1(COC(=O)CCCCCC(=O)OCC(CCCCCC)CCCCCCCC)CCN(C(=O)CCCN2CCOCC2)CC1 (stereo not shown) [Compound 60]
27 | 102.1% | 0.316 | 94.1 nm | 8.09 | CCCCCCCCC(CCCCCC)COC(=O)CCCCCC(=O)OCC1(COC(=O)CCCCCC(=O)OCC(CCCCCC)CCCCCCCC)CCN(C(=O)CCN2CCCC2)CC1 (stereo not shown) [Compound 53]
28 | 102.4% | 0.356 | 97.85 nm | 13.72 | CCCCCCCCC(CCCCCC)COC(=O)CCCCCC(=O)OCC1(COC(=O)CCCCCC(=O)OCC(CCCCCC)CCCCCCCC)CCN(C(=O)CCCN2CCCC2)CC1 (stereo not shown) [Compound 58]
29 | 80.6% | 0.247 | 81.29 nm | 7.25 | CCCCCCCCC(CCCCCC)COC(=O)CCCCCC(=O)OCC1(COC(=O)CCCCCC(=O)OCC(CCCCCC)CCCCCCCC)CCN(C(=O)CCN2CCOCC2)CC1 (stereo not shown) [Compound 55]
30 | 99.7% | 0.2 | 54.56 nm | 7.65 | CCCCCCCCCCCC(=O)OCC1(COCCCCCCCC(=O)OC(CCCCCCCC)CCCCCCCC)CCN(C(=O)CCN(C)C)CC1 [Compound 61]
31 | 100.4% | 0.276 | 74.16 nm | 8.80 | CCCCCCCCC(CCCCCC)COC(=O)CCCCCC(=O)OCC1(COC(=O)CCCCCC(=O)OCC(CCCCCC)CCCCCCCC)CCN(C(=O)CCN(CC)CCO)CC1 (stereo not shown) [Compound 57]
32 | 101.1% | 0.284 | 83.06 nm | 11.73 | CCCCCCCCC(CCCCCC)COC(=O)CCCCCC(=O)OCC1(COC(=O)CCCCCC(=O)OCC(CCCCCC)CCCCCCCC)CCN(C(=O)CCN(C)CCO)CC1 (stereo not shown) [Compound 56]
33 | 94.6% | 0.122 | 120.8 nm | 6.972 | CCCCCCCC(=O)OCC1(COC(=O)CCCCCCC)CCN(CCO)CC1 [Compound 62]
